Data published in ChEMBL document CHEMBL5291721, “A preclinical secondary pharmacology resource illuminates target-adverse drug reaction associations of marketed drugs” (Nat Commun, 2023).

Columns and labels:
[1] = biological target: T1, Type-1 angiotensin II receptor (Homo sapiens, UniProt P30556)
T1 sequence (P30556 whole entry): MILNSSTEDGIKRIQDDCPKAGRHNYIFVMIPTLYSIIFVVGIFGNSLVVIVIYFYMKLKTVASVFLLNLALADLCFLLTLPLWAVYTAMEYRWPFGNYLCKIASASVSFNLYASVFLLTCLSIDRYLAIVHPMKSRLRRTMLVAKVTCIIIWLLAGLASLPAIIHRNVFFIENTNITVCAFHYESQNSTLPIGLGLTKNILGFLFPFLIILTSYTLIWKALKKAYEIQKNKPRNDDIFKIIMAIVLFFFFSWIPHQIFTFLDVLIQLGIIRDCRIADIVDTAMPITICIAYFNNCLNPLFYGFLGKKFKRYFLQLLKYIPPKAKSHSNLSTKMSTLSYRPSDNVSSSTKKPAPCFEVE

[2] = biological target: T2, 5-hydroxytryptamine receptor 1A (Homo sapiens, UniProt P08908); assay type: functional, cell-based
T2 sequence (P08908 whole entry): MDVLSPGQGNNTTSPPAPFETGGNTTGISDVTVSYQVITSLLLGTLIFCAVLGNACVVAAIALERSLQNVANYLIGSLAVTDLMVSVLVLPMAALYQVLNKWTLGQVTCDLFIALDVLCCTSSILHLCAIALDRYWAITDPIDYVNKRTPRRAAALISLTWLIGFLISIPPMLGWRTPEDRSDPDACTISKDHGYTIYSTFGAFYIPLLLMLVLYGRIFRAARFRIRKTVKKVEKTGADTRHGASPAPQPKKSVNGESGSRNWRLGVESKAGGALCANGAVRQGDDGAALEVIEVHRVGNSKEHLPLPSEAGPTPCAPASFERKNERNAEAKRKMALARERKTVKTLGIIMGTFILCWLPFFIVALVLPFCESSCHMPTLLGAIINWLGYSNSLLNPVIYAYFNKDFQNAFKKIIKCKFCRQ

[3] = biological target: T3, Muscarinic acetylcholine receptor M2 (Homo sapiens, UniProt P08172); assay type: functional, cell-based
T3 sequence (P08172 whole entry): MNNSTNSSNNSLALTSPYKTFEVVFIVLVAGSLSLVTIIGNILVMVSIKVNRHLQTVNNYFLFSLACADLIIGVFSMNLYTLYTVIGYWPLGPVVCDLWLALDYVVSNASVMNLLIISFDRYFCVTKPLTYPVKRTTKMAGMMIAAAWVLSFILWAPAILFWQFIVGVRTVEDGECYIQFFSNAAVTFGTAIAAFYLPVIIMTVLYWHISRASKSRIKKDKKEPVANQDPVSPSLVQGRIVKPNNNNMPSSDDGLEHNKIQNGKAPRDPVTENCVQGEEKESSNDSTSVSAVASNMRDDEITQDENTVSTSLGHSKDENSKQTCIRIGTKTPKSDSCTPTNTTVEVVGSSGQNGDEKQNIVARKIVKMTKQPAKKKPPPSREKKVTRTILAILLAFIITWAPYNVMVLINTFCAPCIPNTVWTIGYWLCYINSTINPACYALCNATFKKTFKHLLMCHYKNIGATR

[4] = biological target: Gamma-aminobutyric acid receptor subunit alpha-1 (Rattus norvegicus, UniProt P62813)
Gamma-aminobutyric acid receptor subunit alpha-1, sequence (P62813 whole entry): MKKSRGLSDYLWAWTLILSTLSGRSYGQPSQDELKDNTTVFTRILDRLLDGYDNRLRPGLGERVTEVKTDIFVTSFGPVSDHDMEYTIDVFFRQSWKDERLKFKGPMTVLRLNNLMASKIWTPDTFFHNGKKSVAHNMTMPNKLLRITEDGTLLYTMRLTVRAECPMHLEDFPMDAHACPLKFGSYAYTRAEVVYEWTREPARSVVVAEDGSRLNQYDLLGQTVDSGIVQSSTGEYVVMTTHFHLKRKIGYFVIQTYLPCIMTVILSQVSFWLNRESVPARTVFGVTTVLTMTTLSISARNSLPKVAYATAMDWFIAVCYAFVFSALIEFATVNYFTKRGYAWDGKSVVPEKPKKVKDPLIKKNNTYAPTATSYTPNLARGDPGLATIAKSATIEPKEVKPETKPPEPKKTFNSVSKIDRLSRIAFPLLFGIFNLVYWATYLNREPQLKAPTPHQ

Glucocorticoid receptor = biological target: T4, Glucocorticoid receptor (Homo sapiens, UniProt P04150)
T4 sequence (P04150 whole entry): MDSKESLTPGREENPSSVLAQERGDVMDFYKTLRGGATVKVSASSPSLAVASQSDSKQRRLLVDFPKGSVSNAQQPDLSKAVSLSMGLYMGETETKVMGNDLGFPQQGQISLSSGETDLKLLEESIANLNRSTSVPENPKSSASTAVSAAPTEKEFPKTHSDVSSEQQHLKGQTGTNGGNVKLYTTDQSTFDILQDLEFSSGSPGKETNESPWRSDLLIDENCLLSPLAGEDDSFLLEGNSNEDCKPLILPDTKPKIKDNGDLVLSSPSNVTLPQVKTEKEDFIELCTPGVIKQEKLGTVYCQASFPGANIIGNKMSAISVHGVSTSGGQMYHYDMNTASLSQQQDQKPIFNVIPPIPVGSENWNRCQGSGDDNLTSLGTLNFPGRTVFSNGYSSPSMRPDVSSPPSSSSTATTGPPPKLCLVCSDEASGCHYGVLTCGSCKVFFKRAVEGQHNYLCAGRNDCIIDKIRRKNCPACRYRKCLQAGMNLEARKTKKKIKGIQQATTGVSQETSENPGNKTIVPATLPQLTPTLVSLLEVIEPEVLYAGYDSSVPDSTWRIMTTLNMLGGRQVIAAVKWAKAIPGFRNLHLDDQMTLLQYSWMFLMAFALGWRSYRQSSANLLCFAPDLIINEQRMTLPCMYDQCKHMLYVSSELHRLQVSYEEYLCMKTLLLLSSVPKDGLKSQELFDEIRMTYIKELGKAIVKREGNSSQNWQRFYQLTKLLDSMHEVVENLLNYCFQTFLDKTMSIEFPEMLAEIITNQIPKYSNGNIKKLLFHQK

[5] = biological target: Sodium-dependent noradrenaline transporter (Homo sapiens, UniProt P23975)
Sodium-dependent noradrenaline transporter, sequence (P23975 whole entry): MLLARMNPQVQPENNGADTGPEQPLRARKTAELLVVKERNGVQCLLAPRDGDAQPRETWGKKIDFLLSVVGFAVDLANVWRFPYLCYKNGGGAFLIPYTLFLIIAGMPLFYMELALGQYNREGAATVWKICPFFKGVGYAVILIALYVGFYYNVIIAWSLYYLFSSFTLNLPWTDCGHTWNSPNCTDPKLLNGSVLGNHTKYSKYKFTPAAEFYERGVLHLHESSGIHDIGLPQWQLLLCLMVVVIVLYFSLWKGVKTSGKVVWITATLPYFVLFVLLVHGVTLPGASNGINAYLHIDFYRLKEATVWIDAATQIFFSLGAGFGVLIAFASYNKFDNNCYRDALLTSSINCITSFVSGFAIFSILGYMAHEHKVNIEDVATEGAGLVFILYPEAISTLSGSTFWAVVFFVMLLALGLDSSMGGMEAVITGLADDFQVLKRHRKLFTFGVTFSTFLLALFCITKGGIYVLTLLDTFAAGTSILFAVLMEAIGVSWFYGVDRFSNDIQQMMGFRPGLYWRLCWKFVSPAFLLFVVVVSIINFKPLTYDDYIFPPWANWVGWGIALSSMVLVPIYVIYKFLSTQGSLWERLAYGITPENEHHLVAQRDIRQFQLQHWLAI

[6] = biological target: Voltage-dependent L-type calcium channel subunit alpha-1C (Rattus norvegicus, UniProt P22002); assay type: functional
Voltage-dependent L-type calcium channel subunit alpha-1C, sequence (P22002 whole entry): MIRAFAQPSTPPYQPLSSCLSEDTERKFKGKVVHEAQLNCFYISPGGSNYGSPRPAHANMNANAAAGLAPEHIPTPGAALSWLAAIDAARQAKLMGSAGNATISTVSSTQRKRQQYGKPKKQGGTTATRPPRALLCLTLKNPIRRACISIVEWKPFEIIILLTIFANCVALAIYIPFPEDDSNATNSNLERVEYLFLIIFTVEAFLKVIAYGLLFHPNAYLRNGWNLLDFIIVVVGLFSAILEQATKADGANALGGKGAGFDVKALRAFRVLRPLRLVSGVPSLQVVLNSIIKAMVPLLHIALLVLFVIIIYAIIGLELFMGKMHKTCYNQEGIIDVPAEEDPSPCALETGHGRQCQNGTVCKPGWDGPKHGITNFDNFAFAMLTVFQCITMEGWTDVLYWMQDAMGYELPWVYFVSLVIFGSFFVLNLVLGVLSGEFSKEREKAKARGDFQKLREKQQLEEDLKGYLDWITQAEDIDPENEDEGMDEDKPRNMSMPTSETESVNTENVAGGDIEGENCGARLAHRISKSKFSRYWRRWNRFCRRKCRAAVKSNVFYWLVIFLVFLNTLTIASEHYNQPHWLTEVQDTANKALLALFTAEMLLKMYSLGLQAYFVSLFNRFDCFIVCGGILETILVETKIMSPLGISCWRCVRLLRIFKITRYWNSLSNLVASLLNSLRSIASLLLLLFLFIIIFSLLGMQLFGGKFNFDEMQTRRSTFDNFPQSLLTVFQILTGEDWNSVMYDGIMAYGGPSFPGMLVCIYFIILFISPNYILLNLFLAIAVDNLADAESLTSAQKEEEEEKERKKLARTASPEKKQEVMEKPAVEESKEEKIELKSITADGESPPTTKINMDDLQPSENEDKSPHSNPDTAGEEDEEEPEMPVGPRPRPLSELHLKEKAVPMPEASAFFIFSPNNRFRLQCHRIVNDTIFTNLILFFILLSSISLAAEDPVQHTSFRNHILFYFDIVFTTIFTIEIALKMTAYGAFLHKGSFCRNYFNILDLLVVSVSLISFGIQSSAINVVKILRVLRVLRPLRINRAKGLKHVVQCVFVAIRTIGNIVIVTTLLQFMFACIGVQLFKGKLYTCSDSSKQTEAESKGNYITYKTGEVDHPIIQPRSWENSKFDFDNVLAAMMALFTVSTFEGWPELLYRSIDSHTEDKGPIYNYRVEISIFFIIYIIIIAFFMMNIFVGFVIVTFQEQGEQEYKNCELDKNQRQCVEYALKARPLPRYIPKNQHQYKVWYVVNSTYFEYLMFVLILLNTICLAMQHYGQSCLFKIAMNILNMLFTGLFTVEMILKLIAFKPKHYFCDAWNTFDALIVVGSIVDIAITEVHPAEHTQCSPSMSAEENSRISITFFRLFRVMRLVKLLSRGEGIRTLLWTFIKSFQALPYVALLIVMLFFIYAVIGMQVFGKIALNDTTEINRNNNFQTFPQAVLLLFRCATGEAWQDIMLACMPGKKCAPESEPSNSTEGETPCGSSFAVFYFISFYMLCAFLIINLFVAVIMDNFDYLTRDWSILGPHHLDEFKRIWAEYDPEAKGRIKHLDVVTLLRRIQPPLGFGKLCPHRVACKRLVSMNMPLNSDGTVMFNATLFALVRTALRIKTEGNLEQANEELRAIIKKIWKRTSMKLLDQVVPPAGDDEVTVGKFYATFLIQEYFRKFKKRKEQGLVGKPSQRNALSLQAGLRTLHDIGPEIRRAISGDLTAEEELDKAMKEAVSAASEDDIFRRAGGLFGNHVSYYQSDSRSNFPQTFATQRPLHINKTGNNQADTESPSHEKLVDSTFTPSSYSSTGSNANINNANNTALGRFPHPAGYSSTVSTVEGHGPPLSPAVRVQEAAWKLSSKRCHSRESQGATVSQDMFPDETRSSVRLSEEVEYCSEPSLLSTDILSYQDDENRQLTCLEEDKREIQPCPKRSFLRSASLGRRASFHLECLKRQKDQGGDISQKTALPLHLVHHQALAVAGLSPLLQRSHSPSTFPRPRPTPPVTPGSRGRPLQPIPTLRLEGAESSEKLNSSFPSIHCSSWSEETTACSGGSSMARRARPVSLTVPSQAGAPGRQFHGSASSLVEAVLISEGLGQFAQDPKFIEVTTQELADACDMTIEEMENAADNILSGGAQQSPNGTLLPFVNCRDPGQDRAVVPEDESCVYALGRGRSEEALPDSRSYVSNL

[7] = biological target: 5-hydroxytryptamine receptor 2B (Homo sapiens, UniProt P41595); assay type: functional, cell-based
5-hydroxytryptamine receptor 2B, sequence (P41595 whole entry): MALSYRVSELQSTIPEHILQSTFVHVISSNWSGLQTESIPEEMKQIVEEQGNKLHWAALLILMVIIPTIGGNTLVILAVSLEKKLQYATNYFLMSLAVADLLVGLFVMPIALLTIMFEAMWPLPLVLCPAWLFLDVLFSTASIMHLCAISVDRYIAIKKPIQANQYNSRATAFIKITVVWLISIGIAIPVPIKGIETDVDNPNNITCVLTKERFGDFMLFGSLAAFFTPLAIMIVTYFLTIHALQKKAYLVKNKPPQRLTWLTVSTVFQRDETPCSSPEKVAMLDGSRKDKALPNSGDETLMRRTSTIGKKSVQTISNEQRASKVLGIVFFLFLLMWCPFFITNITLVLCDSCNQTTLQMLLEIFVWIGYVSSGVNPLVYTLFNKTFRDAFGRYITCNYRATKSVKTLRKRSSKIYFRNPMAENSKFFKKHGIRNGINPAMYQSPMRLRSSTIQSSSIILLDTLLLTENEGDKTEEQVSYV

[8] = biological target: Voltage-gated inwardly rectifying potassium channel KCNH2 (Homo sapiens, UniProt Q12809); assay type: functional; settings: read-out: AC50
[9] = biological target: Sodium-dependent serotonin transporter (Homo sapiens, UniProt P31645)
Sodium-dependent serotonin transporter, sequence (P31645 whole entry): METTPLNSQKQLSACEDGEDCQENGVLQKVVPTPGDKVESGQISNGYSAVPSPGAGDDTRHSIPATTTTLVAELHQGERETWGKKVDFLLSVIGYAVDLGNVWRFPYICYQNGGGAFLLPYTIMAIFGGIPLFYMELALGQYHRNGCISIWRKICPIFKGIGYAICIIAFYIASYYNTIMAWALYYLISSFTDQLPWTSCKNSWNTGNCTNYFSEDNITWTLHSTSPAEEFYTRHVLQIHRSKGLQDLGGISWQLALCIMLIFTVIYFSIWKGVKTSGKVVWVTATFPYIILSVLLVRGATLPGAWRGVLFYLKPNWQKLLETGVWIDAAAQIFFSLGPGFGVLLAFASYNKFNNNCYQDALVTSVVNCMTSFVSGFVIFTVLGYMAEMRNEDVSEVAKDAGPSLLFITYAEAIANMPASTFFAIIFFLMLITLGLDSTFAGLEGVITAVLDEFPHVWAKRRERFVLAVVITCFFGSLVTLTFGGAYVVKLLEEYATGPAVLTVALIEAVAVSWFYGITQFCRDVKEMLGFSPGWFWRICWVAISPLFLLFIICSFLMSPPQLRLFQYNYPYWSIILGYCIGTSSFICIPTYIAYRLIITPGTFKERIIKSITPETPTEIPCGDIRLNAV

D(1A) dopamine receptor = D(1A) dopamine receptor (Homo sapiens, UniProt P21728); assay type: functional, cell-based
D(1A) dopamine receptor, sequence (P21728 whole entry): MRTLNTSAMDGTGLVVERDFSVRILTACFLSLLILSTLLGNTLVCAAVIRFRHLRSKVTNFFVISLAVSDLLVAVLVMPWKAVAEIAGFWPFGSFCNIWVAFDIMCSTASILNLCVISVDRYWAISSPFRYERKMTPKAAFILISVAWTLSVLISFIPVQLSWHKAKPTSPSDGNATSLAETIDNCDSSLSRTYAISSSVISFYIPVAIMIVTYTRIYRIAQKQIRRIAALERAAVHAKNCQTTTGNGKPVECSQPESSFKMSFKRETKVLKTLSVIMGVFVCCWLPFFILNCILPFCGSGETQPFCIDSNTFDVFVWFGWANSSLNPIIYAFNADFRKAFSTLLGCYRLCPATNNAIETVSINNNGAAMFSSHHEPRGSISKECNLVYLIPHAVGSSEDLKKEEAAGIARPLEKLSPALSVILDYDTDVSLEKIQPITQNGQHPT

[10] = biological target: 5-hydroxytryptamine receptor 2A (Homo sapiens, UniProt P28223); assay type: functional, cell-based
Also: assay procedure not described here.

SMILES	AC50 [1] [µM]	AC50 [2] [µM]	AC50 [3] [µM]	AC50 [4] [µM]	AC50 (Glucocorticoid receptor) [µM]	AC50 [5] [µM]	AC50 [6] [µM]	AC50 [7] [µM]	AC50 [8] [µM]	AC50 [9] [µM]	AC50 (D(1A) dopamine receptor) [µM]	AC50 [10] [µM]
CCC(C(=O)O)c1ccc(N2Cc3ccccc3C2=O)cc1 (configuration not stated) [INDOBUFEN]	> 30	1.9	> 30	> 30	> 30	> 30	> 30	> 30	> 30	> 30	> 30	> 30
C=CCC1(C(C)CC)C(=O)NC(=O)NC1=O (configuration not stated) [TALBUTAL]	> 10	> 10	> 10	> 10	> 10	> 10	> 10	> 10	> 30	> 10	> 10	> 10
Cc1cc(O)c(C(=O)N[C@@H](C(=O)N[C@@H]2C(=O)N3C(C(=O)O)=C(CSc4nnnn4C)CS[C@H]23)c2ccc(O)cc2)cn1 [CEFPIRAMIDE]	> 30	> 30	> 30	> 30	> 30	> 30	> 30	> 30	> 30	> 30	> 30	> 30
COC(=O)C1=C(C)NC(C)=C(C(=O)OC(C)(C)CN(C)CCC(c2ccccc2)c2ccccc2)C1c1cccc([N+](=O)[O-])c1 (configuration not stated) [LERCANIDIPINE]	> 30	> 30	> 30	> 30	> 30	> 30	0.046	> 30	> 30	> 30	> 30	> 30
C=CCC1(CC(C)C)C(=O)NC(=O)NC1=O [BUTALBITAL]	> 30	> 10	> 10	> 10	> 10	> 10	> 10	> 10	> 30	> 10	> 30	> 10
O=C(O)[C@H](CC(=O)N1C[C@H]2CCCC[C@H]2C1)Cc1ccccc1 [MITIGLINIDE]	> 10	> 10	> 10	> 10	> 10	> 10	> 10	> 10	> 30	> 10	> 10	> 10
O=C(O)/C=C/c1ccc(Cn2ccnc2)cc1 [OZAGREL]	> 30	> 30	> 30	> 30	> 30	–	> 30	> 30	> 30	> 30	> 30	> 30
CO[C@@H]1[C@@H](O[C@@H]2O[C@H](C)[C@@H](O[C@H]3C[C@@](C)(O)[C@@H](OC(=O)CC(C)C)[C@H](C)O3)[C@H](N(C)C)[C@H]2O)[C@@H](CC=O)C[C@@H](C)[C@@H](O)/C=C/C=C/C[C@@H](C)OC(=O)C[C@H]1OC(C)=O [JOSAMYCIN]	> 10	> 10	> 10	> 10	> 10	> 10	> 10	> 10	> 30	> 10	> 10	> 10
C[C@]1(O)CC[C@H]2[C@@H]3CCC4=CC(=O)CC[C@]4(C)[C@@]3(F)[C@@H](O)C[C@@]21C [FLUOXYMESTERONE]	> 10	> 10	> 10	> 10	0.088	> 10	> 10	> 10	> 30	> 10	> 30	> 10
O=C(O)C[C@H](O)C[C@H](O)/C=C/c1c(C2CC2)nc2ccccc2c1-c1ccc(F)cc1 [PITAVASTATIN]	> 30	> 10	> 30	> 10	> 10	> 30	> 10	> 10	> 30	> 10	> 10	> 30
O=C(O)CCCCCCNC1c2ccccc2CCc2ccccc21 [AMINEPTINE]	> 30	> 30	> 30	> 30	> 30	> 30	> 30	> 30	> 30	> 30	> 30	> 30
CCCCc1ncc(/C=C(\Cc2cccs2)C(=O)O)n1Cc1ccc(C(=O)O)cc1 [EPROSARTAN]	0.0019	> 10	> 10	> 10	> 30	> 30	> 10	> 10	> 30	> 30	> 30	> 30
CC1(C)O[C@@H]2C[C@H]3[C@@H]4CCC5=CC(=O)C=C[C@]5(C)[C@H]4[C@@H](O)C[C@]3(C)[C@]2(C(=O)CO)O1 [DESONIDE]	> 30	> 10	> 10	> 10	0.016	> 10	> 10	> 10	> 30	> 10	> 10	> 10
COc1ccc(CCN(C)CCCC(C#N)(c2cc(OC)c(OC)c(OC)c2)C(C)C)cc1OC (configuration not stated) [GALLOPAMIL]	> 30	11	> 30	> 30	> 30	> 30	–	0.86	1.9	3	> 30	3.6
CC(C)OC(=O)CCC/C=C\C[C@@H]1[C@@H](CC[C@@H](O)CCc2ccccc2)[C@H](O)C[C@@H]1O [LATANOPROST]	> 30	> 30	> 30	> 30	> 30	> 30	–	> 30	> 30	> 30	> 30	> 30
